Some results are limits rather than exact numbers.

One may read the IC50 as the midpoint of a concentration-inhibition curve.

Conditions in all cases: average where tested multiple times
One experiment deals with T1, hBCAT1 (Homo sapiens, UniProt P54687).
T1 sequence (P54687 1-386): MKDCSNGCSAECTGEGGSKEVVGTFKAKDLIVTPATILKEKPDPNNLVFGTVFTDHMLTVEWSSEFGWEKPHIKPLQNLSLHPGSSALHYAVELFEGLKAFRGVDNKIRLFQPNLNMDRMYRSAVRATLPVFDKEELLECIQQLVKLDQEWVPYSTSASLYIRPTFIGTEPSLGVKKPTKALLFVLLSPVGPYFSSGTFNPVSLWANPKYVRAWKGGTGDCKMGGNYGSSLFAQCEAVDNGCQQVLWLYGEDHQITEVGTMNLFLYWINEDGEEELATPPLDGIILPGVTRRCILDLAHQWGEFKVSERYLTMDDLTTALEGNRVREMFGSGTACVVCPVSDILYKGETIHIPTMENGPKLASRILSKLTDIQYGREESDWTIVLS
Put plainly: BCAT1 in vitro enzyme inhibition assay (resazurin/diaphorase-coupled fluorescence). The format is biochemical. Summed up: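 Ten-point, 3-fold compound series (top final 100 μM, delivered 1:50 from 50× DMSO stocks) tested against hBCAT1. Inhibition detected via diaphorase-coupled resazurin fluorescence, duplicate wells, with values from repeated runs averaged.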
For orientation: Alamar Blue is a resazurin reagent that responds to reducing activity.

The target in experiment [1] is T2, BCAT2 (Homo sapiens, UniProt O15382).
T2 sequence (O15382 28-392): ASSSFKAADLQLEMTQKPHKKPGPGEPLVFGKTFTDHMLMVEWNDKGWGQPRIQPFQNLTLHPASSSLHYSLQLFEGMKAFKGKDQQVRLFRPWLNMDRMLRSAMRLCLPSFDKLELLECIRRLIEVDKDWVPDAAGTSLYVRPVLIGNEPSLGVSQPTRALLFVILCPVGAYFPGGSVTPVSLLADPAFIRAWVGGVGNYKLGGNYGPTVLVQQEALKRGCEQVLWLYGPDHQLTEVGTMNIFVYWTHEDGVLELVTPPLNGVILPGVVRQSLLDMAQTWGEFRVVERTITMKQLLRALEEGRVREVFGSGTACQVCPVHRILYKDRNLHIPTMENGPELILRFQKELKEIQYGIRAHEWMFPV
Put plainly: BCAT2 in vitro enzyme inhibition assay (resazurin/diaphorase-coupled fluorescence). Type of experiment: biochemical. An outline of the steps:
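Coupled fluorescence readout: glutamate formed from L-leucine/α-ketoglutarate transamination drives GDH/NAD/diaphorase reduction of resazurin (Ex 540/Em 590). Human BCAT2 was first exposed 1 h at room temperature to compound, top final 100 μM in 3-fold, 10-point series; substrate reaction ran 1 h before SDS quench, in technical duplicate with DMSO max and enzyme-free min controls.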

For experiment [2], the target named is T2, BCAT2. Put plainly: BCAT2 in vitro cell inhibition using engineered A549 cells (KMV cell assay, 13C6-KMV by LC-MS/MS). The format is cell-based. Also noted: The result was an engineered A549 cell line that expressed endogenous BCAT2; endogenous in cells; host or cells: A549 cells with MUT and BCAT1 knocked out by CRISPR/CAS9.

On to `CC(C)Cc1nc2cnc(-c3nc4ccccc4o3)cc2n1[C@@H]1CCC[C@H](NC(=O)c2ncc(Cl)s2)C1` [Example 324, N-((1S,3R)-3-(6-(benzo[d]oxazol-2-yl)-2-isobutyl-1H-imidazo[4,5-c]pyridin-1-yl)cyclohexyl)-5-chlorothiazole-2-carboxamide], for which the results for the IC50 at hBCAT1, at BCAT2 [1] and at BCAT2 [2] were 1000 to 5000 nM, at most 100 nM and 100 to 500 nM, respectively.

Turning to `O=C(N[C@H]1CCC[C@@H](n2c(CC3(C(F)(F)F)CC3)nc3cnc(-c4nc[nH]n4)cc32)C1)c1ncc(Cl)s1` [Example 325, N-((1S,3R)-3-(6-(1H-1,2,4-triazol-3-yl)-2-((1-(trifluoromethyl)cyclopropyl)methyl)-1H-imidazo[4,5-c]pyridin-1-yl)cyclohexyl)-5-chlorothiazole-2-carboxamide], the figures for the IC50 against hBCAT1, against BCAT2 [1] and against BCAT2 [2] were under 500 nM, at most 100 nM and at most 100 nM, respectively.

Consider `Cc1csc(-c2cc3c(cn2)nc(CC(C)C)n3[C@@H]2CCC[C@H](NC(=O)c3ncc(Cl)s3)C2)n1` [Example 326, 5-chloro-N-((1S,3R)-3-(2-isobutyl-6-(4-methylthiazol-2-yl)-1H-imidazo[4,5-c]pyridin-1-yl)cyclohexyl)thiazole-2-carboxamide], for which the results for the IC50 against hBCAT1, on BCAT2 [1] and against BCAT2 [2] were under 500 nM, at most 100 nM and at most 100 nM, respectively.

Regarding `CC(C)Cc1nc2cnc(-c3ncns3)cc2n1[C@@H]1CCC[C@H](NC(=O)c2ncc(Cl)s2)C1` [Example 328, 5-chloro-N-((1S,3R)-3-(2-isobutyl-6-(1,2,4-thiadiazol-5-yl)-1H-imidazo[4,5-c]pyridin-1-yl)cyclohexyl)thiazole-2-carboxamide], the half-maximal inhibitory concentration (IC50) on hBCAT1 is over 5000 nM; against BCAT2 [1], 100 to 500 nM; at BCAT2 [2], over 1000 nM.

On to `CC(C)Cc1nc2cnc(-c3nc(Cl)cs3)cc2n1[C@@H]1CCC[C@H](NC(=O)c2ncc(Cl)s2)C1` [Example 329, 5-chloro-N-((1S,3R)-3-(6-(4-chlorothiazol-2-yl)-2-isobutyl-1H-imidazo[4,5-c]pyridin-1-yl)cyclohexyl)thiazole-2-carboxamide], for which the IC50 on hBCAT1 is 500 to 1000 nM; against BCAT2 [1] it was at most 100 nM; on BCAT2 [2], 500 to 1000 nM.

Regarding `CC(C)Cc1nc2cnc(-c3nc(CO)cs3)cc2n1[C@@H]1CCC[C@H](NC(=O)c2ncc(Cl)s2)C1` [Example 330, 5-chloro-N-((1S,3R)-3-(6-(4-(hydroxymethyl)thiazol-2-yl)-2-isobutyl-1H-imidazo[4,5-c]pyridin-1-yl)cyclohexyl)thiazole-2-carboxamide], the IC50 is under 500 nM on hBCAT1, at most 100 nM against BCAT2 [1] and at most 100 nM on BCAT2 [2].

In the case of `CC(C)Cc1nc2cnc(-c3ncccn3)cc2n1[C@@H]1CCC[C@H](NC(=O)c2ncc(Cl)s2)C1` [Example 331, 5-chloro-N-((1S,3R)-3-(2-isobutyl-6-(pyrimidin-2-yl)-1H-imidazo[4,5-c]pyridin-1-yl)cyclohexyl)thiazole-2-carboxamide], the IC50 on hBCAT1 was under 500 nM; against BCAT2 [1], at most 100 nM; against BCAT2 [2] it was at most 100 nM.

As for `CC(C)Cc1nc2cnc(-c3ccccc3CC#N)cc2n1[C@@H]1CCC[C@H](NC(=O)c2ccc(Cl)s2)C1` [Example 332, 5-chloro-N-((1S,3R)-3-(6-(2-(cyanomethyl)phenyl)-2-isobutyl-1H-imidazo[4,5-c]pyridin-1-yl)cyclohexyl)thiophene-2-carboxamide], the values for the IC50 at hBCAT1, at BCAT2 [1] and against BCAT2 [2] were 500 to 1000 nM, 100 to 500 nM and 500 to 1000 nM, respectively.

In the case of `CC(C)Cc1nc2cnc(-n3ccc(N)n3)cc2n1[C@@H]1CCC[C@H](NC(=O)c2ncc(Cl)s2)C1` [Example 334, N-((1S,3R)-3-(6-(3-amino-1H-pyrazol-1-yl)-2-isobutyl-1H-imidazo[4,5-c]pyridin-1-yl)cyclohexyl)-5-chlorothiazole-2-carboxamide], the IC50 on hBCAT1 was under 500 nM; at BCAT2 [1], at most 100 nM; against BCAT2 [2], 500 to 1000 nM.
